In article PMC8151276, “An Integrated Approach toward NanoBRET Tracers for Analysis of GPCR Ligand Engagement” (Molecules, 2021):

Tests used:
Assay type in all cases: binding
GRM2 = molecular target: T1, GRM2 (Homo sapiens, UniProt Q14416); experiment: NanoBRET screen HiBiT-GRM2 in HEK293; settings: GRM2
T1 construct: purchased Promega (in-house HiBiT-GPCR construct library, NanoBRET)
Method: (§1) Each tracer candidate was screened across the entire library of HiBiT-GPCR constructs using NanoBRET as the detection modality. As depicted in Figure 4A, the specificity of interactions was evaluated through decrease in BRET due to competitive displacement of a bound tracer by excess parental compound. Each tracer was analyzed for binding to each HiBiT-GPCR fusion in the absence and in the presence of competing parental compound. Briefly, HEK293 cells were transfected with HiBiT-GPCR constructs diluted into promoterless DNA to reduce expression and maximize translocation to the cell surface. Each tracer candidate was then screened at concentrations of 1 μM and 0.1 μM across cells expressing these fusions. Cells were treated for 1.5 h with tracer either alone or in the presence of 20 μM competing parental compound (i.e., control). BRET was measured upon addition of purified LgBiT and subsequent complementation with HiBiT genetically fused to a GPCR. The specificity of interactions was assessed through a decrease in BRET signal due to competitive displacement of the bound tracer. To further gauge the robustness of these interactions, the fold response over the control (i.e., BRETtracer/BRETcontrol) was calculated. We chose a 1.5-fold response, which translates to ≥7-fold signal over noise as the minimal threshold required to score an interaction as positive. […]. Below we highlight the screening results obtained for our exemplary fluorescent tracers based on Clozapine, Amitriptyline and AZD1283.
(§2) HiBiT-GPCR DNA constructs were diluted in 10 mM Tris pH 8 to a final concentration of 0.01 μg/μL, arrayed in 96-well plates and stored at −20 °C. For transfection, HEK293 cells were suspended in Opti-MEM (without phenol red) supplemented with 2% fetal bovine serum (Seradigm) and 100 units/mL penicillin–streptomycin (Gibco) at a final concentration of 220,000 cells/mL and dispensed into white 96-well plates at 90 μL/well. Subsequent transfections and screens were carried using an Agilent Bravo Automated Liquid Handling Platform. First, the 96-well HiBiT DNA arrays were diluted 25-fold in Opti-MEM (without serum or phenol red) to a final concentration of 0.0004 μg/μL and 20 μL of the diluted DNAs were transferred into new 96-well plates. Next, promoterless carrier DNA (1 μg/μL) was diluted 25-fold (0.04 μg/μL) and then dispensed into the diluted arrays at 20 μL/well. Following brief mixing, Viafect transfection reagent (Promega) diluted 16-fold into Opti-MEM was dispensed into the plates at 40 μL/well. After mixing by pipetting, plates were incubated for 10 min on the pipetting station deck. The DNA-transfection reagent complexes were then added to plates containing cells. To facilitate the screen, 10 μL of DNA-transfection reagent complexes were added in duplicates to the top 4 and bottom 4 rows, resulting in two identical 48-well arrays per plate. Plates with transfected cells were incubated for 18–20 h at 37 °C/5% CO2. A screen of each tracer across the entire library using two different concentrations requires duplicate plates of transfected cells. Depending on the number of tracers being screened, transfections can be scaled up using the same ratios. The next day, for each tracer, four 20× screening solutions in tracer dilution buffer (Promega) were prepared: two duplicates at final concentration of 20 μM and two duplicates at a final concentration of 2 μM. A competing unmodified compound was added to one of each duplicate at a final concentration of 400 μM. The four resulting solutions were diluted 4-fold in Opti-MEM without serum or phenol red to generate 5× solutions (5 µM and 0.5 µM tracer +/− 100 μM competing compound). To screen the library, a BioTek MultiFlo FX liquid dispenser was used to dispense 22.5 µL of tracer solution to the top 4 rows and 22.5 µL tracer + competing compound solution to the 4 bottom rows. Plates were briefly mixed on an orbital shaker and incubated for 1.5 h at room temperature. […]

C5AR1 = molecular target: T2, C5AR1 (Homo sapiens, UniProt P21730); experiment: NanoBRET screen HiBiT-C5AR1 in HEK293; settings: C5AR1
T2 construct: purchased Promega (in-house HiBiT-GPCR construct library, NanoBRET)
T2 sequence (P21730 1-350): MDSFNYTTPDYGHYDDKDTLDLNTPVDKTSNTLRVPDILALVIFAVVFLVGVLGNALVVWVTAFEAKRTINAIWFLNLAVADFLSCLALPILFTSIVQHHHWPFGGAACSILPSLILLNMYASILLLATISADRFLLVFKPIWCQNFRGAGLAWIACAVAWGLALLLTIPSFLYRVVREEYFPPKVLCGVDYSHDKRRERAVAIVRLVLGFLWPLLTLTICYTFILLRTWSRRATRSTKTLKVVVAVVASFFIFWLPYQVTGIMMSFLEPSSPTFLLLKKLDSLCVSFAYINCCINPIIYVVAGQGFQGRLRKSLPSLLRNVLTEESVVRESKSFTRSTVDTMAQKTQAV
Method: as §1, §2

NPFFR2 = molecular target: T3, NPFFR2 (Homo sapiens, UniProt Q9Y5X5); experiment: NanoBRET screen HiBiT-NPFFR2 in HEK293; settings: NPFFR2
T3 construct: purchased Promega (in-house HiBiT-GPCR construct library, NanoBRET)
T3 sequence (Q9Y5X5 whole entry): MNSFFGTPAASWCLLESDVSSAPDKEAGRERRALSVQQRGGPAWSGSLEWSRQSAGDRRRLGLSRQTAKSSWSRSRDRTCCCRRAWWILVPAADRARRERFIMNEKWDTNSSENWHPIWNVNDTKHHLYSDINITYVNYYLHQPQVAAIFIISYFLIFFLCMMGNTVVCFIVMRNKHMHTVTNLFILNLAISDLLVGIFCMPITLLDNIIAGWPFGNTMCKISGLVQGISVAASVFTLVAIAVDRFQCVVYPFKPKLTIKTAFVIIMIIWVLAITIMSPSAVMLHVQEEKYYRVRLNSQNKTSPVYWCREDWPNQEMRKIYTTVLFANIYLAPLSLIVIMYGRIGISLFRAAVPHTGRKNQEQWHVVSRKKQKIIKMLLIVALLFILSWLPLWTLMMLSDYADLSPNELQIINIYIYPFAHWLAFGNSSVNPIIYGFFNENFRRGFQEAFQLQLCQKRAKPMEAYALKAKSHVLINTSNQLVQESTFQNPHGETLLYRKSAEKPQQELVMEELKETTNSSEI
Method: as §1, §2

ADORA3 = molecular target: T4, ADORA3 (Homo sapiens, UniProt P0DMS8); experiment: NanoBRET screen HiBiT-ADORA3 in HEK293; settings: ADORA3
T4 construct: purchased Promega (in-house HiBiT-GPCR construct library, NanoBRET)
T4 sequence (P0DMS8 1-318): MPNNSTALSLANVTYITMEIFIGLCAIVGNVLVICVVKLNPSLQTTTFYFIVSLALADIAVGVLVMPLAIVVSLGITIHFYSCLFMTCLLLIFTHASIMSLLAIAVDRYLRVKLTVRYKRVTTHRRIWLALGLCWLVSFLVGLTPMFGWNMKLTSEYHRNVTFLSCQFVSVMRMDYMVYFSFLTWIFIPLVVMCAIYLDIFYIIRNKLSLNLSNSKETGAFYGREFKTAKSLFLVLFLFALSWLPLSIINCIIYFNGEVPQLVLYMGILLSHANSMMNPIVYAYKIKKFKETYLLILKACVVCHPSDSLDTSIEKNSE
Method: as §1, §2

VIPR1 = molecular target: T5, VIPR1 (Homo sapiens, UniProt P32241); experiment: NanoBRET screen HiBiT-VIPR1 in HEK293; settings: VIPR1
T5 construct: purchased Promega (in-house HiBiT-GPCR construct library, NanoBRET)
T5 sequence (P32241 31-457): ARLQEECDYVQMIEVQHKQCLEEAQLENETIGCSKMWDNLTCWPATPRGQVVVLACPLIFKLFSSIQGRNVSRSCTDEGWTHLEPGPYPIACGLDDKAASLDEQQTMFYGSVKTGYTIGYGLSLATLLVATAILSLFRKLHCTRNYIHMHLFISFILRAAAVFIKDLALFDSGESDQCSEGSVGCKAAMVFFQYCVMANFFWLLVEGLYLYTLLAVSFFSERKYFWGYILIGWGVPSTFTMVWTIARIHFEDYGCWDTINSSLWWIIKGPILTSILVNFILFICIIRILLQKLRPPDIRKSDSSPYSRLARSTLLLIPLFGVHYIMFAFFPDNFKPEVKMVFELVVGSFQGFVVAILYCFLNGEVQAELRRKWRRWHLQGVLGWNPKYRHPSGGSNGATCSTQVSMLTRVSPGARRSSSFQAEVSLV
Method: as §1, §2

CHRM3 = molecular target: T6, CHRM3 (Homo sapiens, UniProt P20309); experiment: NanoBRET screen HiBiT-CHRM3 in HEK293; settings: CHRM3
T6 construct: purchased Promega (in-house HiBiT-GPCR construct library, NanoBRET)
T6 sequence (P20309 whole entry): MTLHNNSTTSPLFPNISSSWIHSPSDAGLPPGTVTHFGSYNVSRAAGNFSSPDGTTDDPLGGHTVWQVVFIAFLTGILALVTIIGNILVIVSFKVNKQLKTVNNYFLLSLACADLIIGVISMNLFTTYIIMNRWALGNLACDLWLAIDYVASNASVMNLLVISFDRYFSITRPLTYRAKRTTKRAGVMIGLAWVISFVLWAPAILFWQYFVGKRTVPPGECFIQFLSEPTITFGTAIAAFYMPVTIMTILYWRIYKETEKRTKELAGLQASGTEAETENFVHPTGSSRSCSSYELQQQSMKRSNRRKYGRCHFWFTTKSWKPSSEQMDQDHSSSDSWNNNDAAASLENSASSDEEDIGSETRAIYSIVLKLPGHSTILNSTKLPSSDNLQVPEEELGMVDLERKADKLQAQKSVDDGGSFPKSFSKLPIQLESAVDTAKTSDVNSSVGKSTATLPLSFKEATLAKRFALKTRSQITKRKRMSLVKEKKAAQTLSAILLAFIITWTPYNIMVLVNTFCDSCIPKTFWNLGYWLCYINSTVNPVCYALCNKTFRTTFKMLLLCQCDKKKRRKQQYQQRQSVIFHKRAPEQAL

T1 sequence (Q14416 19-872): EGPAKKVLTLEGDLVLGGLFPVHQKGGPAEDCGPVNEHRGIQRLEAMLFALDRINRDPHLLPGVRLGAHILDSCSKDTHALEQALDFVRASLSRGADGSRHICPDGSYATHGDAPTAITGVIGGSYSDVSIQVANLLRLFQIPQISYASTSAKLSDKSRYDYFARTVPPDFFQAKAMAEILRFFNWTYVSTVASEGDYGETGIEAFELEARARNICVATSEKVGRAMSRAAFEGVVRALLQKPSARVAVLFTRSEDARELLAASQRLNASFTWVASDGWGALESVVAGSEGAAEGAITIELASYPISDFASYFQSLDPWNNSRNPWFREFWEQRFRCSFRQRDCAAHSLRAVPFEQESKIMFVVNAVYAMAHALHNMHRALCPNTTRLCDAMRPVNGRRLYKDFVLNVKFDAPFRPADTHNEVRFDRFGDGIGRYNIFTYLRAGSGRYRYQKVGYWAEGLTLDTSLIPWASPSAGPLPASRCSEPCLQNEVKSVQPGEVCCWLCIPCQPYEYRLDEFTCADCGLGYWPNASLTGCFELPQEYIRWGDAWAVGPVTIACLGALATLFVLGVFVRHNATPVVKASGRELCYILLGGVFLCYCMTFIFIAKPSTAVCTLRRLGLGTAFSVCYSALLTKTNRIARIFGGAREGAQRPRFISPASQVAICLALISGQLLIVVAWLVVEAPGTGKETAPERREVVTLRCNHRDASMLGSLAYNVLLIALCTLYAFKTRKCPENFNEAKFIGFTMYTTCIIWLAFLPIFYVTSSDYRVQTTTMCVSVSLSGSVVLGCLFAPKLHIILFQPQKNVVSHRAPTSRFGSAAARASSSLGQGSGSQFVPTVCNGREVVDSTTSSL

SMILES	NanoBRET Fold Response (GRM2; tracer 0.1μM)	NanoBRET Fold Response (GRM2; tracer 1μM)	NanoBRET Fold Response (C5AR1; tracer 0.1μM)	NanoBRET Fold Response (C5AR1; tracer 1μM)	NanoBRET Fold Response (NPFFR2; tracer 0.1μM)	NanoBRET Fold Response (NPFFR2; tracer 1μM)	NanoBRET Fold Response (ADORA3; tracer 0.1μM)	NanoBRET Fold Response (ADORA3; tracer 1μM)	NanoBRET Fold Response (VIPR1; tracer 0.1μM)	NanoBRET Fold Response (VIPR1; tracer 1μM)	NanoBRET Fold Response (CHRM3; tracer 0.1μM)	NanoBRET Fold Response (CHRM3; tracer 1μM)
COc1ccccc1N1CCN(CCCCN2C(=O)c3ccc(CNC(=O)CCOCCNC(=O)c4ccc(CNC(=O)CCc5ccc6n5[B-](F)(F)[N+]5=C(c7ccc[nH]7)C=CC5=C6)cc4)cc3C2=O)CC1 [NAN-190-3-NB590]	1.03	1.03	1.02	1.10	1.02	1.01	0.97	1.19	0.71	1.05	1.10	1.12
CC(C)N(CC[C@H](c1ccccc1)c1cc(CCNC(=O)CCOCCOCCOCCOCCNC(=O)CCc2ccc3n2[B-](F)(F)[N+]2=C(c4ccc[nH]4)C=CC2=C3)ccc1O)C(C)C [Tolterodine-2-NB590]	0.99	0.97	0.95	1.08	0.98	1.06	1.12	1.00	0.99	0.78	1.67	1.52
CC(C)N(CC[C@H](c1ccccc1)c1cc(CCNC(=O)c2ccc(CNC(=O)CCc3ccc4n3[B-](F)(F)[N+]3=C(c5ccc[nH]5)C=CC3=C4)cc2)ccc1O)C(C)C [Tolterodine-BZ-NB590]	1.00	0.15	1.01	1.11	1.00	1.02	0.58	0.71	0.97	0.98	1.18	1.25
CCCn1c(=O)c2[nH]c(-c3ccc(OCC(=O)NCCNC(=O)CCOCCNC(=O)c4ccc(CNC(=O)CCc5ccc6n5[B-](F)(F)[N+]5=C(c7ccc[nH]7)C=CC5=C6)cc4)cc3)nc2n(CCC)c1=O [XAC-3-NB590]	1.01	1.03	0.95	1.04	1.02	1.02	12.13	6.72	1.03	0.99	0.90	1.29
